The source of these data is patent publication US20230331691A1, “TREPROSTINIL DERIVATIVE COMPOUNDS AND METHODS OF USING SAME” (CORSAIR PHARMA, INC., priority 2013, published 2023).

Format in all cases: in vitro ADME
The nature of data set [1]: Human liver microsomal stability assay (Test 1). As to conditions: human liver microsomes, 0.5 uM test compound, 37° C., up to 45 minutes, pH 7.4, NADPH generating system; read-out: Test 1 T½. The protocol:
(§1) (Test 1) Human liver microsomal stability assay was conducted by incubating 0.5 uM test compounds at 37° C. for up to 45 minutes in 50 mM of potassium phosphate buffer (pH 7.4) containing 0.5 mg of microsomal protein and 50 µL of NADPH generating system (7.8 mg of glucose 6-phosphate, 1.7 mg of NADPH and 6 U of glucose 6-phosphate dehydrogenase per mL in 2% w/v of sodium bicarbonate). At 0, 5, 15, 30 and 45 min., an aliquot was taken, quenched with internal standard containing stop solution. No co-factor controls at 45 minutes were also prepared. After incubation, the samples were analyzed by LC-MS/MS. Peak area ratios of analyte to internal standard were used to calculate the intrinsic clearance. The intrinsic clearance (CLint) was determined from the first order elimination constant by non-linear regression. Formation of the active drug Compound A over the time course was also monitored by LC-MS/MS analysis.

Data set [2] can be described thus: Human plasma stability assay (Test 2). As to conditions: heparinated human plasma, 0.5 uM test compound, 37° C., up to 120 minutes; read-out: Test 2 T½. The protocol: (Test 2) Human plasma stability assay was conducted by incubating 0.5 uM test compounds at 37° C. for up to 120 minutes in heparinated human plasma. At 0, 5, 15, 30, 60 and 120 […] min., an aliquot was taken, quenched with internal standard containing stop solution. After incubation, the samples were analyzed by LC-MS/MS. Peak area ratios of analyte to internal standard were used to calculate the half-life. Formation of the active drug Compound A over the time course was also monitored by LC-MS/MS analysis.

Data set [3] is described as follows: Human skin homogenate stability assay (Test 3). As to conditions: 0.5 uM test compound, 37° C., up to 45 minutes, pH 7.4, NADPH generating system, read-out: Test 3 T½. As to the method: as §1, with “3)” for “1)”, “skin homogenate” for “liver microsomal”, “conducted in a similar way as the human liver microsomal stability assay,” for “conducted”, “human skin homogenate” for “microsomal”

On to `CCCCC[C@H](O)CC[C@@H]1[C@H]2Cc3cccc(OCC(=O)OC(C)C)c3C[C@H]2C[C@H]1O` [Compound 20, [2-Hydroxy-1-(3-hydroxy-octyl)-2,3,3a,4,9,9a-hexahydro-1H-cyclopenta[b]naphthalen-5-yloxy]-acetic acid isopropyl ester], for which the half-life at 0.5 uM is less than 15 min in data set [1], 31 to 60 min in data set [2] and less than 15 min in data set [3].

With `CCCCC[C@H](O)CC[C@@H]1[C@H]2Cc3cccc(OCC(=O)OC)c3C[C@H]2C[C@H]1OC(=O)CCCC` [Compound 22, Pentanoic acid 1-(3-hydroxy-octyl)-5-methoxycarbonylmethoxy-2,3,3a,4,9,9a-hexahydro-1H-cyclopenta[b]naphthalen-2-yl ester], the half-life at 0.5 uM in data set [1] was less than 15 min; in data set [2], greater than 60 min; in data set [3], greater than 60 min.

Consider `CCCCC[C@H](O)CC[C@@H]1[C@H]2Cc3cccc(OCC(=O)OC)c3C[C@H]2C[C@H]1OC(=O)OCC` [Compound 25, [2-Ethoxycarbonyloxy-1-(3-hydroxy-octyl)-2,3,3a,4,9,9a-hexahydro-1H-cyclopenta[b]naphthalen-5-yloxy]-acetic acid methyl ester], for which the half-life at 0.5 uM in data set [1] is less than 15 min; in data set [2], greater than 60 min; in data set [3], 31 to 60 min.

As for `CCCCC[C@H](O)CC[C@@H]1[C@H]2Cc3cccc(OCC(=O)OC)c3C[C@H]2C[C@H]1OC(C)=O` [Compound 26, [2-Acetoxy-1-(3-hydroxy-octyl)-2,3,3a,4,9,9a-hexahydro-1H-cyclopenta[b]naphthalen-5-yloxy]-acetic acid methyl ester], the half-life at 0.5 uM in data set [1] is less than 15 min; in data set [2] it was 15 to 30 min; in data set [3] it was 15 to 30 min.

Regarding `CCCCC[C@H](O)CC[C@@H]1[C@H]2Cc3cccc(OCC(=O)O[C@H](C)CC)c3C[C@H]2C[C@H]1O` [Compound 60], the half-life at 0.5 uM is less than 15 min in data set [1], 31 to 60 min in data set [2] and 31 to 60 min in data set [3].

With `CCCCC[C@H](O)CC[C@@H]1[C@H]2Cc3cccc(OCC(=O)O[C@@H](C)CC)c3C[C@H]2C[C@H]1O` [Compound 61], the half-life at 0.5 uM in data set [1] was less than 15 min; in data set [2], 15 to 30 min; in data set [3], 31 to 60 min.

On to `CCCCC[C@H](O)CC[C@@H]1[C@H]2Cc3cccc(OCC(=O)O[C@H](C)C(C)C)c3C[C@H]2C[C@H]1O` [Compound 62], for which the half-life at 0.5 uM in data set [1] is less than 15 min; in data set [2], 31 to 60 min; in data set [3], greater than 60 min.

In the case of `CCCCC[C@H](O)CC[C@@H]1[C@H]2Cc3cccc(OCC(=O)O[C@@H](C)C(C)C)c3C[C@H]2C[C@H]1O` [Compound 63], the figures for the half-life at 0.5 uM in data set [1], in data set [2] and in data set [3] were less than 15 min, 31 to 60 min and 31 to 60 min, respectively.

Consider `CCCCCCCCOC(=O)COc1cccc2c1C[C@H]1C[C@@H](O)[C@H](CC[C@@H](O)CCCCC)[C@H]1C2` [Compound 64], for which the half-life at 0.5 uM in data set [1] was less than 15 min; in data set [2], greater than 60 min; in data set [3], greater than 60 min.
